Results on 26 molecules are retold here after PubChem BioAssay AID651988 (The Scripps Research Institute Molecular Screening Center, 2013).

Experiment [1] concerns the target Acyl-protein thioesterase 1 (Homo sapiens) (UniProt O75608). In words: selectivity of LYPLA1/LYPLA2 inhibition – cell lysate, gel-based ABPP, fluorescence, HEK293T proteome, powder samples, selectivity assay for LYPLA1/LYPLA2 inhibitor project, late-stage follow-up (AID 651988). Conditions: HEK293T soluble proteome, FP-PEG-Rh fluorescence, LYPLA1, at 10 µM, hits give high values.

The target of experiment [2] is Acyl-protein thioesterase 2 (Homo sapiens) (UniProt O95372). The experiment is described as above. As to conditions: HEK293T soluble proteome, FP-PEG-Rh fluorescence, LYPLA2, at 10 µM, hits give high values.
Chain of Acyl-protein thioesterase 2 (Homo sapiens) (O95372 whole entry, looked up): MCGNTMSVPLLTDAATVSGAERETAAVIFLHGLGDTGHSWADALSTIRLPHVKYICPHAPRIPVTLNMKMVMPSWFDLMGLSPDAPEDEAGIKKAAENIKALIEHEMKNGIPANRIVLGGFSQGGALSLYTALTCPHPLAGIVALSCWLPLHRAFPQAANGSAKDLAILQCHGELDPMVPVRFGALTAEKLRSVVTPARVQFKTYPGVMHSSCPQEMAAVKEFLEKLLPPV

Activity calls are given as the source filed them.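 How the source made its calls: active means inhibition of 50% or more at 300 nM in exactly one of the two enzyme panels, LYPLA1 or LYPLA2; inactive means under 50% in both panels, or reaching 50% in both.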

Chain of Acyl-protein thioesterase 1 (Homo sapiens) (O75608 whole entry, looked up): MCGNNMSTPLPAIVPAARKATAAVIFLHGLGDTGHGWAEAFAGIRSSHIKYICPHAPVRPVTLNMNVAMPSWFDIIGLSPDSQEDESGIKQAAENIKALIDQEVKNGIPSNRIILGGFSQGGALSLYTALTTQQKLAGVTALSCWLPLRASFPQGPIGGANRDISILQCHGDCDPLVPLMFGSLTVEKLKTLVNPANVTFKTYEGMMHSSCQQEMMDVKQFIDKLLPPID

Take `O=C(c1ccco1)N1CCN(C(=S)Nc2cccc([N+](=O)[O-])c2)CC1`: the inhibition in experiment [1] and in experiment [2] was 0% (inactive) in each case.

Take `O=C(c1cc2c(s1)-c1ccccc1S(=O)(=O)C2)N1CCN(C2CCCCC2)CC1`: the inhibition (in general, the share of the control response that was lost under treatment) in experiment [1] is 0% (inactive); in experiment [2], 25% (inactive).

For the molecule `O=C(c1cc2c(s1)-c1ccccc1S(=O)(=O)C2)N1CCN(c2cccc(Cl)c2)CC1`, the inhibition in experiment [1] and in experiment [2] was 0% (inactive) throughout.

As for `O=C(c1cc2c(s1)-c1ccc(Cl)cc1S(=O)(=O)C2)N1CCN(c2ncccn2)CC1`, the inhibition is 0% (inactive) in experiment [1] and 75% (inactive) in experiment [2].

Consider `COc1ccc(N2CCN(C(=O)c3ccc(C(C)(C)C)cc3)CC2)cc1`, for which the inhibition is 0% (inactive) in experiment [1] and 75% (inactive) in experiment [2].

Regarding `CCOC(=O)N1CCN(C(=O)c2cc3c(s2)-c2ccc(Cl)cc2S(=O)(=O)C3)CC1`, the inhibition in experiment [1] and in experiment [2] was 0% (inactive) throughout.

In the case of `CC(C(=O)Nc1cccc(C(F)(F)F)c1)N1CCN(C(=O)c2ccco2)CC1` (configuration not stated), the inhibition in experiment [1] and in experiment [2] was 0% (inactive) throughout.

On to `COc1ccccc1N1CCN(C(=O)c2cc3c(s2)-c2ccccc2S(=O)(=O)C3)CC1`, for which the inhibition in experiment [1] and in experiment [2] was 0% (inactive) throughout.

In the case of `O=C(CN1CCN(C(=O)c2ccco2)CC1)Nc1ccc(Cl)cc1Cl`, the inhibition in experiment [1] and in experiment [2] was 50% (inactive) in each case.

With `COc1ccc(N2CCN(C(=O)c3cc4c(s3)CCCCC4)CC2)cc1`, the inhibition is 0% (inactive) in experiment [1] and 100% (inactive) in experiment [2].

In the case of `O=C(CN1CCN(C(=O)c2ccco2)CC1)Nc1cc(Cl)ccc1Cl`, the inhibition is 100% in experiment [1] and 25% (inactive) in experiment [2].

On to `O=C(c1cc2c(s1)-c1ccc(Cl)cc1S(=O)(=O)C2)N1CCN(c2ccccn2)CC1`, for which the inhibition in experiment [1] and in experiment [2] was 0% (inactive) throughout.

Consider `CC1CCc2c(sc(NC(=O)CN3CCN(C(=O)c4ccco4)CC3)c2C#N)C1` (configuration not stated), for which the inhibition in experiment [1] and in experiment [2] was 0% (inactive) in each case.

As to `O=C(Nc1ccc(N2CCN(C(=O)c3ccco3)CC2)c(Cl)c1)c1c(F)c(F)c(F)c(F)c1F`, the inhibition in experiment [1] was 75% (inactive); in experiment [2], 50% (inactive).

With `COc1ccc(N2CCN(C(=O)c3cc4c(s3)-c3ccccc3S(=O)(=O)C4)CC2)cc1`, the inhibition in experiment [1] is 0% (inactive); in experiment [2] it was 100%.

Consider `O=C(CN1CCN(C(=O)c2ccco2)CC1)Nc1ccc(Br)cc1Cl`, for which the inhibition in experiment [1] and in experiment [2] was 50% (inactive) each time.

In the case of `O=C(CN1CCN(C(=O)c2ccco2)CC1)Nc1cccc(Cl)c1Cl`, the inhibition in experiment [1] and in experiment [2] was 0% (inactive) in each case.

For the molecule `O=C(COc1ccc(Cl)cc1)N1CCN(c2cccc(C(F)(F)F)c2)CC1`, the inhibition in experiment [1] is 25% (inactive); in experiment [2], 0% (inactive).

As to `O=C(CN1CCN(C(=O)c2ccccc2)CC1)Nc1cc(S(=O)(=O)N2CCCC2)ccc1Cl`, the inhibition in experiment [1] was 75% (inactive); in experiment [2], 0% (inactive).

With `O=C(c1cc2c(s1)-c1ccc(Cl)cc1S(=O)(=O)C2)N1CCN(C2CCCCC2)CC1`, the inhibition was 0% (inactive) in experiment [1] and 75% (inactive) in experiment [2].

As to `O=C(c1ccco1)N1CCN(C(=S)Nc2ccc(F)c(Cl)c2)CC1`, the results for the inhibition in experiment [1] and in experiment [2] were 100% (inactive) and 50% (inactive), respectively.

For the molecule `O=C(c1cc2c(s1)-c1ccccc1S(=O)(=O)C2)N1CCN(c2ccccc2)CC1`, the values for the inhibition in experiment [1] and in experiment [2] were 0% (inactive) and 75% (inactive), respectively.

With `Cc1nnsc1C(=O)N1CCCC(N2CCN(c3cccc(C(F)(F)F)c3)CC2)C1` (configuration not stated), the inhibition in experiment [1] and in experiment [2] was 0% (inactive) in each case.

As for `O=C(CN1CCN(C(=O)c2ccco2)CC1)Nc1cc(C(F)(F)F)ccc1Cl`, the inhibition in experiment [1] is 100%; in experiment [2] it was 25% (inactive).

For `O=C(c1cc2c(s1)-c1ccccc1S(=O)(=O)C2)N1CCN(c2ccc(Cl)cc2)CC1`, the inhibition was 0% (inactive) in experiment [1] and 100% (inactive) in experiment [2].

`O=C(c1cc2c(s1)-c1ccccc1S(=O)(=O)C2)N1CCN(Cc2ccccc2)CC1`: the inhibition in experiment [1] is 0% (inactive); in experiment [2], 50% (inactive).
